The values below come from PubChem BioAssay AID328 (DTP/NCI, 2004).

Where “and” joins values, the source holds several entries; their conditions need not be identical. Equal values may be shown once. Inconclusive results and toxic doses are left out.

For the experiment, the system named is BDF1 mice, P388 leukemia ip, median survival T/C. The experiment in a line: NCI In Vivo Anticancer Drug Screen. Data for tumor model P388 Leukemia (intraperitoneal) in B6D2F1 (BDF1) mice. The settings on record: endpoint: median survival time, higher = longer survival. Summed up: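 Reported as T/C, where T is the survival measurement in dosed animals and C the same measurement in vehicle controls.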

[1] abbreviates: dose: 12.5 mg/kg/injection, schedule: Q01DX009 (ip), vehicle: saline with Tween-80.
Where [2] appears, read: dose: 25.0 mg/kg/injection, schedule: Q01DX009 (ip), vehicle: saline with Tween-80.
Where [3] appears, read: dose: 50.0 mg/kg/injection, schedule: Q01DX009 (ip), vehicle: saline with Tween-80.
[4] abbreviates: dose: 100.0 mg/kg/injection, schedule: Q01DX009 (ip), vehicle: saline with Tween-80.
The mark [5] stands for this setting: dose: 200.0 mg/kg/injection, schedule: Q01DX009 (ip), vehicle: saline with Tween-80.
The mark [6] stands for this setting: dose: 100.0 mg/kg/injection, schedule: Q04DX003 (ip), vehicle: Klucel (hydroxypropylcellulose) (HPC).
[7] abbreviates: dose: 200.0 mg/kg/injection, schedule: Q04DX003 (ip), vehicle: Klucel (hydroxypropylcellulose) (HPC).
[8] abbreviates: dose: 400.0 mg/kg/injection, schedule: Q04DX003 (ip), vehicle: Klucel (hydroxypropylcellulose) (HPC).
Where [9] appears, read: dose: 50.0 mg/kg/injection, schedule: Q01DX009 (ip), vehicle: Klucel (hydroxypropylcellulose) (HPC).

As for `COc1cc2c(c(OC)c1OC)-c1ccc(OC)c(=O)cc1[C@@H](NC(=O)c1ccccc1)CC2`, the T/C (dose: 0.06 mg/kg/injection, schedule: Q01DX009 (ip), vehicle: saline sonified) is 112 % of control; the T/C (dose: 0.12 mg/kg/injection, schedule: Q01DX009 (ip), vehicle: saline sonified) is 116 % of control; the T/C (dose: 0.5 mg/kg/injection, schedule: Q01DX009 (ip), vehicle: saline sonified) was 163 % of control; the T/C (dose: 1.0 mg/kg/injection, schedule: Q01DX009 (ip), vehicle: saline sonified) was 190 % of control; the T/C (dose: 2.0 mg/kg/injection, schedule: Q01DX009 (ip), vehicle: saline sonified) was 254 % of control and 109 % of control; the T/C (dose: 3.3 mg/kg/injection, schedule: Q04DX003 (ip), vehicle: saline) was 159 % of control. Moreover, the T/C is 272 % of control (dose: 4.0 mg/kg/injection, schedule: Q01DX009 (ip), vehicle: saline sonified); 200 % of control (dose: 5.0 mg/kg/injection, schedule: Q04DX003 (ip), vehicle: saline); 162 % of control (dose: 6.0 mg/kg/injection, schedule: Q01DX009 (ip), vehicle: saline sonified); 204 % of control (dose: 7.5 mg/kg/injection, schedule: Q04DX003 (ip), vehicle: saline).

In the case of `COc1ccc(NC(=S)Nc2ccccn2)cc1`, the T/C is 100 % of control under setting [1]; 100 % of control under setting [2]; 104 % of control under setting [3]; 103 % of control (dose: 100.0 mg/kg/injection, schedule: Q01DX001 (ip), vehicle: saline); 100 % of control under setting [4]; 111 % of control (dose: 200.0 mg/kg/injection, schedule: Q01DX001 (ip), vehicle: saline). For the same compound, the T/C under setting [5] is 96 % of control; the T/C (dose: 400.0 mg/kg/injection, schedule: Q01DX001 (ip), vehicle: saline) was 107 % of control; the T/C (dose: 400.0 mg/kg/injection, schedule: Q01DX009 (ip), vehicle: saline with Tween-80) is 104 % of control.

For `CC(O)C(N)C(=O)NCCc1nc(-c2nc(C(=O)NCCCBr)cs2)cs1` (stereo unspecified), the T/C is 106 % of control (dose: 50.0 mg/kg/injection, schedule: Q01DX009 (ip), vehicle: saline); 94 % of control (dose: 100.0 mg/kg/injection, schedule: Q01DX009 (ip), vehicle: saline); 103 % of control (dose: 200.0 mg/kg/injection, schedule: Q01DX009 (ip), vehicle: saline).

Regarding `O=C(NCCBr)Nc1cccc2c1Cc1ccccc1-2`, the T/C reads like this: under setting [6], 100 % of control; under setting [7], 100 % of control; under setting [8], 95 % of control.

On to `COc1cccc2c1C(=O)c1c(O)c3c(c(O)c1C2=O)CC(O)(C(=O)C(C)C)CC3OC1CC(N)C(O)C(C)O1` (stereo unspecified), for which the T/C reads like this: (dose: 9.4 mg/kg/injection, schedule: Q04DX003 (ip), vehicle: water) 107 % of control; (dose: 18.8 mg/kg/injection, schedule: Q04DX003 (ip), vehicle: water) 107 % of control; (dose: 37.5 mg/kg/injection, schedule: Q04DX003 (ip), vehicle: water) 116 % of control; (dose: 75.0 mg/kg/injection, schedule: Q04DX003 (ip), vehicle: water) 90 % of control.

In the case of `CCOC(=O)c1c(NC(=O)CCl)ssc1=S`, the T/C runs as follows: (dose: 0.78 mg/kg/injection, schedule: Q01DX009 (ip), vehicle: saline with Tween-80) 116 % of control; (dose: 1.56 mg/kg/injection, schedule: Q01DX009 (ip), vehicle: saline with Tween-80) 116 % of control; (dose: 3.12 mg/kg/injection, schedule: Q01DX009 (ip), vehicle: saline with Tween-80) 116 % of control; (dose: 6.25 mg/kg/injection, schedule: Q01DX009 (ip), vehicle: saline with Tween-80) 116 % of control; under setting [1], 114 % of control; under setting [2], 109 % of control. Besides, the T/C was 111 % of control under setting [3]; 102 % of control (dose: 50.0 mg/kg/injection, schedule: Q04DX003 (ip), vehicle: saline with Tween-80); 100 % of control (dose: 200.0 mg/kg/injection, schedule: Q04DX003 (ip), vehicle: saline with Tween-80); 116 % of control (dose: 400.0 mg/kg/injection, schedule: Q04DX003 (ip), vehicle: saline with Tween-80).

As to `O=C(NC(=O)C(F)(F)C(F)(F)F)Nc1cccc(F)c1`, the T/C is, setting by setting: under setting [9], 116 % of control; (dose: 100.0 mg/kg/injection, schedule: Q01DX009 (ip), vehicle: Klucel (hydroxypropylcellulose) (HPC)) 122 % of control.

On to `N#CC(C#N)=Cc1ccc(C=C(C#N)C#N)cc1`, for which the T/C (dose: 12.5 mg/kg/injection, schedule: Q01DX009 (ip), vehicle: Klucel (hydroxypropylcellulose) (HPC)) is 100 % of control; the T/C (dose: 25.0 mg/kg/injection, schedule: Q01DX009 (ip), vehicle: Klucel (hydroxypropylcellulose) (HPC)) is 95 % of control; the T/C under setting [9] is 90 % of control; the T/C under setting [6] was 100 % of control; the T/C under setting [7] is 104 % of control; the T/C under setting [8] was 121 % of control.

In the case of `CC(CCCN(CCCl)CCCl)Nc1ccnc2cc(Cl)ccc12` (stereo unspecified), the T/C (dose: 0.5 mg/kg/injection, schedule: Q04DX003 (ip), vehicle: saline) is 100 % of control; the T/C (dose: 0.66 mg/kg/injection, schedule: Q01DX009 (ip), vehicle: saline) was 154 % of control; the T/C (dose: 1.0 mg/kg/injection, schedule: Q01DX009 (ip), vehicle: saline) is 154 % of control; the T/C (dose: 1.0 mg/kg/injection, schedule: Q04DX003 (ip), vehicle: saline) is 100 % of control; the T/C (dose: 2.0 mg/kg/injection, schedule: Q04DX003 (ip), vehicle: saline) is 111 % of control.

For `C[C@]12C=CC(=O)C=C1CC[C@H]1[C@@H]3C[C@@H](O)[C@](O)(C(=O)CO)[C@@]3(C)C[C@H](O)[C@@]12F`, the T/C is, setting by setting: under setting [9], 100 % of control; (dose: 132.0 mg/kg/injection, schedule: Q01DX009 (ip), vehicle: Klucel (hydroxypropylcellulose) (HPC)) 118 % of control; (dose: 200.0 mg/kg/injection, schedule: Q01DX009 (ip), vehicle: Klucel (hydroxypropylcellulose) (HPC)) 113 % of control.

Turning to `CC(C)(C)[N]1[Si](C)(C)[N](C(C)(C)C)[Sn]12[S][Sn]1([S]2)[N](C(C)(C)C)[Si](C)(C)[N]1C(C)(C)C`, the T/C reads like this: under setting [3], 100 % of control; under setting [4], 94 % of control; under setting [5], 86 % of control.

`Clc1cccc(N2CN(c3cccc(Cl)c3)CN(c3cccc(Cl)c3)C2)c1`: the T/C (dose: 100.0 mg/kg/injection, schedule: Q01DX001 (ip), vehicle: saline with Tween-80) is 90 % of control; the T/C (dose: 200.0 mg/kg/injection, schedule: Q01DX001 (ip), vehicle: saline with Tween-80) is 87 % of control; the T/C (dose: 400.0 mg/kg/injection, schedule: Q01DX001 (ip), vehicle: saline with Tween-80) is 91 % of control.

In the case of `NC(=S)N/N=C/c1ccc(O)cn1`, the T/C is, setting by setting: (dose: 18.8 mg/kg/injection, schedule: Q01DX009 (ip), vehicle: saline with Tween-80) 189 % of control; (dose: 25.0 mg/kg/injection, schedule: Q01DX001 (ip), vehicle: Klucel (hydroxypropylcellulose) (HPC)) 100 % of control and 109 % of control; (dose: 25.0 mg/kg/injection, schedule: Q01DX010 (ip), vehicle: saline) 172 % of control; (dose: 25.0 mg/kg/injection, schedule: Q04DX002 (ip), vehicle: Klucel (hydroxypropylcellulose) (HPC)) 103 % of control; (dose: 25.0 mg/kg/injection, schedule: Q04DX003 (ip), vehicle: Klucel (hydroxypropylcellulose) (HPC)) 122 % of control; (dose: 37.5 mg/kg/injection, schedule: Q01DX009 (ip), vehicle: saline with Tween-80) 219 % of control. Moreover, the T/C was 200 % of control (dose: 50.0 mg/kg/injection, schedule: Q01DX010 (ip), vehicle: saline); 178 % of control (dose: 75.0 mg/kg/injection, schedule: Q01DX009 (ip), vehicle: saline with Tween-80); 227 % of control (dose: 100.0 mg/kg/injection, schedule: Q01DX010 (ip), vehicle: saline); 100 % of control (dose: 200.0 mg/kg/injection, schedule: Q01DX010 (ip), vehicle: saline).

Consider `CC1=CC2OC34COC3CC(OC(=O)C(F)(F)F)C4(C)C2(C)CC1` (stereo unspecified), for which the T/C by setting is: (dose: 75.0 mg/kg/injection, schedule: Q04DX003 (ip), vehicle: saline with Tween-80) 110 % of control; (dose: 300.0 mg/kg/injection, schedule: Q04DX003 (ip), vehicle: saline with Tween-80) 117 % of control.

In the case of `CCC1C(=O)NC(=O)C1(C)c1ccccc1` (stereo unspecified), the T/C reads like this: under setting [3], 191 % of control; under setting [4], 122 % of control; under setting [5], 120 % of control.
